Test results as given in patent US20220402935A1, “HETEROCYCLIC COMPOUND” (FIMECS, INC., priority 2019, published 2022).

Columns and labels:
IRAK-M [1] = molecular target: T1, IRAK-M (Homo sapiens, UniProt Q9Y616); experiment: In vitro degradation activity of target protein (IRAK-M ELISA in THP1 cells); format: cell-based; set-up: host or cells: THP1 cells; conditions: 24 hours, second symbol of cell, read-out: IRAK-M 50% degradation concentration (DC50 value)
T1 sequence (Q9Y616 1-596): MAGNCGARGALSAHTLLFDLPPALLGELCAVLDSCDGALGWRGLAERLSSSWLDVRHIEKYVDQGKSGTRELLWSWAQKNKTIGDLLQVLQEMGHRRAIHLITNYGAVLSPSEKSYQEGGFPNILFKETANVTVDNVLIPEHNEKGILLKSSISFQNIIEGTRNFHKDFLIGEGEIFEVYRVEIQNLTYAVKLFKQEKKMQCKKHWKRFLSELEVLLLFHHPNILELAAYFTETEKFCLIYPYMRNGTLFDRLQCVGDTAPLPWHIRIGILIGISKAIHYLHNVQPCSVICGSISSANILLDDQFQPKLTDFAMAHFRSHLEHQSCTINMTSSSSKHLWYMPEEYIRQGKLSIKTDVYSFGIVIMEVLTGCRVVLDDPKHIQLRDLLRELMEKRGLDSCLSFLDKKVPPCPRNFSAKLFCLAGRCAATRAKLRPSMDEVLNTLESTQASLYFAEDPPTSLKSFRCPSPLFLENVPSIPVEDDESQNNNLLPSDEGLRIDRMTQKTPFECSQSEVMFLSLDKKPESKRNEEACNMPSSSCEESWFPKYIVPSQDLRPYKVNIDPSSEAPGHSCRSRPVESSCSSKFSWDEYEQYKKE
Experimental: In vitro degradation activities of target protein of the example compounds were evaluated using Enzyme-linked immuno-sorbent assay (ELISA) by the following assay steps. THP1 cells (ATCC, TIB-202) were cultured in RPMI-1640 supplemented with 10% FBS, lx sodium pyruvate, lx HEPES, D-(+)-glucose and 1% penicillin/streptomycin. THP1 cells were seeded at a density of 1×10^6 cells/well in 24-well plate and treated with DMSO control or test compound, and then incubated for 24 hours. The cells were collected and lysed on ice for 30 minutes in lysis buffer (PBS containing 0.1% Triton X-100) containing a protease inhibitor cocktail (Roche, Cat #11836170001). The lysates were sonicated for 30 sec ON/30 sec OFF for ten cycles and centrifuged for 10 minutes at 13k rpm at 4° C. Protein concentrations were determined by the BCA assay (Sigma, Cat #QPBCA-1KT). The ELISA assay was performed using the Human IRAK3/IRAKM/IRAK-M ELISA Kit (LifeSpan BioSciences, Cat #LS-F35271), and the protein levels of IRAK-M were evaluated according to the kit protocol. As to the IRAK-M degradation rate of test compounds, protein degradation rate (%) when the concentration of the test compound is […] described as A≥75%, 50%≤B<75%, 25%≤C<50%, D<25%, or 50% degradation concentration (DC50 value) described as A<0.03 μM, 0.03 μM≤B<0.1 μM, 0.1 μM≤C<0.3 μM, 0.3 μM≤D<1 μM, is shown in the table below.

IRAK-M [2] = molecular target: T1, IRAK-M; experiment: IRAK-M binding inhibitory activity (KINOMEscan active site-dependent competitive assay); set-up: purchased Eurofins Discover X; conditions: concentration of the test compound 1 μM; first symbol of cell; read-out: IRAK-M binding inhibition activity % Ctrl
Procedure, shortened: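 Readout given as % Ctrl, with DMSO as 100% and a control compound as 0%, scaling the test compound signal between them. Binding to human IRAK-M was assessed by KINOMEscan competition at the kinase active site.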

[3] = molecular target: T2, human XIAP_BIR3 domain purified protein (Homo sapiens, UniProt P98170); experiment: XIAP binding inhibitory activity (HTRF, b-Smac ligand); conditions: second symbol of cell; read-out: XIAP binding inhibition IC50 value
T2 construct: purchased R & D
Procedure, shortened: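 HTRF competition between compound and C-terminally biotinylated Smac peptide AVPIAQK for His-tagged XIAP BIR3, both diluted to 90 nM before addition, in pH 7.5 HEPES/NaCl/BSA/Triton buffer. Eu-cryptate anti-His and streptavidin-XL665 added, ≥4 h at room temperature in the dark; inhibition % from 665/615 nm ratio versus no-compound wells.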

T2 sequence (P98170 252-356 limits assumed): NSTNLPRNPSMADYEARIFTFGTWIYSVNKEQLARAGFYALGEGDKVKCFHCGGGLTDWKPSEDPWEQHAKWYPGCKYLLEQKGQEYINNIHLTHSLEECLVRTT

Row | Compound | DC50 (IRAK-M [1]) [nM] | remaining binding at 1 µM (IRAK-M [2]) [%] | IC50 [3] [nM]
1 | CN[C@@H](C)C(=O)N[C@H](C(=O)N1CCN(C(=O)c2c(F)c3cc(F)ccc3n2CC(=O)N2CCC[C@H]2COc2cc(CN3CCC(Oc4ccnc5ccsc45)CC3)on2)CC1)C1CCCCC1 [Example 41, (S)-N-((S)-1-cyclohexyl-2-(4-(3,5-difluoro-1-(2-oxo-2-((S)-2-(((5-((4-(thieno[3,2-b]pyridin-7-yloxy)piperidin-1-yl)methyl)isoxazol-3-yl)oxy)methyl)pyrrolidin-1-yl)ethyl)-1H-indole-2-carbonyl)piperazin-1-yl)-2-oxoethyl)-2-(methylamino)propanamide] | 100 to 300 | 25 to 50 | 3000 to 30000
2 | CN[C@@H](C)C(=O)N[C@H](C(=O)N1CCN(C(=O)c2cc3cc(F)c(F)cc3n2CC(=O)N2CCOC[C@H]2COc2cc(CN3CCC(Oc4ccnc5ccsc45)CC3)on2)CC1)C1CCCCC1 [Example 44, (S)-N-((S)-1-cyclohexyl-2-(4-(5,6-difluoro-1-(2-oxo-2-((S)-3-(((5-((4-(thieno[3,2-b]pyridin-7-yloxy)piperidin-1-yl)methyl)isoxazol-3-yl)oxy)methyl)morpholino)ethyl)-1H-indole-2-carbonyl)piperazin-1-yl)-2-oxoethyl)-2-(methylamino)propanamide] | 300 to 1000 | 25 to 50 | 3000 to 30000
3 | CN[C@@H](C)C(=O)N[C@H](C(=O)N1CCN(C(=O)c2cc3c(OCCOCCOCCOCCOc4cc(CN5CCC(Oc6ccnc7ccsc67)CC5)on4)c(F)c(F)cc3n2C)CC1)C1CCCCC1 [Example 51, (S)-N-((S)-1-cyclohexyl-2-(4-(5,6-difluoro-1-methyl-4-(2-(2-(2-(2-((5-((4-(thieno[3,2-b]pyridin-7-yloxy)piperidin-1-yl)methyl)isoxazol-3-yl)oxy)ethoxy)ethoxy)ethoxy)ethoxy)-1H-indole-2-carbonyl)piperazin-1-yl)-2-oxoethyl)-2-(methylamino)propanamide] | 100 to 300 | < 25 | 300 to 3000
4 | CN[C@@H](C)C(=O)N[C@H](C(=O)N1CCC[C@H]1c1nc(C(=O)c2cccc(OCCOCCOCCOc3cc(CN4CCC(Oc5ccnc6ccsc56)CC4)on3)c2)cs1)C1CCCCC1 [Example 59, (S)-N-((S)-1-cyclohexyl-2-oxo-2-((S)-2-(4-(3-(2-(2-(2-((5-((4-(thieno[3,2-b]pyridin-7-yloxy)piperidin-1-yl)methyl)isoxazol-3-yl)oxy)ethoxy)ethoxy)ethoxy)benzoyl)thiazol-2-yl)pyrrolidin-1-yl)ethyl)-2-(methylamino)propanamide] | 300 to 1000 | < 25 | < 300
